Reference: patent US8592174B2, “Peptidase substrates” (bioMérieux, S.A., priority 2009, dated 2013)
Each block holds one molecule with its values, some of them ahead of it.

Legend:
Assay type in all cases: cell-based
Conditions in all cases: 75 mg/l, 48 h 37° C.
[1] = test system: Acinetobacter baumannii 0604029; assay: Peptidase detection on Columbia medium (Example 5); also: key: +++: good growth/high coloration strength; ++: medium growth/medium coloration strength; +: weak growth/weak coloration strength; −: no growth/no coloration
Description: (§1) After homogenization, the media were distributed into Petri dishes 55 mm in diameter. A medium acting as a growth control (Columbia) and denoted C was also poured.
(§2) Twenty-two strains of microorganisms were inoculated with a 10 μl calibrated loop according to the three-quadrant streaking method using bacterial suspensions at 0.5 McFarland.

[2] = test system: Bacillus subtilis 0204038; assay: Peptidase detection on Columbia medium (Example 5)
Description: as §1, §2

[3] = test system: Burkholderia cepacia 7507032; assay: Peptidase detection on Columbia medium (Example 5)
Description: as §1, §2

[4] = test system: Candida albicans 0801025; assay: Peptidase detection on Columbia medium (Example 5); also: key: +++: good growth/high coloration strength; ++: medium growth/medium coloration strength; +: weak growth/weak coloration strength; −: no growth/no coloration
Description: as §1, §2

[5] = test system: Candida glabrata 0408083; assay: Peptidase detection on Columbia medium (Example 5); also: key: +++: good growth/high coloration strength; ++: medium growth/medium coloration strength; +: weak growth/weak coloration strength; −: no growth/no coloration
Description: as §1, §2

[6] = test system: Citrobacter freundii 0006197; assay: Peptidase detection on Columbia medium (Example 5); also: key: +++: good growth/high coloration strength; ++: medium growth/medium coloration strength; +: weak growth/weak coloration strength; −: no growth/no coloration
Description: as §1, §2

[7] = test system: Enterobacter cloacae 0604040; assay: Peptidase detection on Columbia medium (Example 5)
Description: as §1, §2

[8] = test system: Enterococcus faecalis 0008192; assay: Peptidase detection on Columbia medium (Example 5)
Description: as §1, §2

[9] = test system: Enterococcus faecium 0610021; assay: Peptidase detection on Columbia medium (Example 5)
Description: as §1, §2

[10] = test system: Escherichia coli 0002005; assay: Peptidase detection on Columbia medium (Example 5)
Description: as §1, §2

[11] = test system: Klebsiella pneumoniae 0008009; assay: Peptidase detection on Columbia medium (Example 5)
Description: as §1, §2

[12] = test system: Listeria monocytogenes 8812049; assay: Peptidase detection on Columbia medium (Example 5)
Description: as §1, §2

[13] = test system: MRSA 0303033; assay: Peptidase detection on Columbia medium (Example 5)
Description: as §1, §2

[14] = test system: Morganella morganii 9207053; assay: Peptidase detection on Columbia medium (Example 5)
Description: as §1, §2

[15] = test system: Providencia rettgeri 0706064; assay: Peptidase detection on Columbia medium (Example 5)
Description: as §1, §2

[16] = test system: Pseudomonas aeruginosa 0001001; assay: Peptidase detection on Columbia medium (Example 5)
Description: as §1, §2

[17] = test system: Salmonella ser. Typhimurium 0801029; assay: Peptidase detection on Columbia medium (Example 5)
Description: as §1, §2

[18] = test system: Serratia marcescens 7303004; assay: Peptidase detection on Columbia medium (Example 5)
Description: as §1, §2

[19] = test system: Staphylococcus aureus 7811049; assay: Peptidase detection on Columbia medium (Example 5)
Description: as §1, §2

[20] = test system: Staphylococcus epidermidis 0203050; assay: Peptidase detection on Columbia medium (Example 5)
Description: as §1, §2

[21] = test system: Streptococcus pyogenes 9806380; assay: Peptidase detection on Columbia medium (Example 5)
Description: as §1, §2

[22] = test system: Yersinia enterocolitica 7605019; assay: Peptidase detection on Columbia medium (Example 5)
Description: as §1, §2

[23] = test system: Pseudomonas aeruginosa 0001001; assay: Peptidase detection on Columbia medium (Example 3); parameters: Coloration strength: key: +++: good growth/high coloration strength; ++: medium growth/medium coloration strength; +: weak growth/weak coloration strength; −: no growth/no coloration
Description: (§3) A medium serving as a growth control (Columbia) and denoted C was also poured.

[24] = test system: Serratia marcescens 7303004; assay: Peptidase detection on Columbia medium (Example 3); parameters: Coloration strength: key: +++: good growth/high coloration strength; ++: medium growth/medium coloration strength; +: weak growth/weak coloration strength; −: no growth/no coloration
Description: as §3

[25] = test system: Acinetobacter baumannii 0604029; assay: Peptidase detection on Columbia medium (Example 3)
Description: as §3

[26] = test system: Bacillus subtilis 0204038; assay: Peptidase detection on Columbia medium (Example 3)
Description: as §3

[27] = test system: Burkholderia cepacia 7507032; assay: Peptidase detection on Columbia medium (Example 3)
Description: as §3

[28] = test system: Candida albicans 0801025; assay: Peptidase detection on Columbia medium (Example 3)
Description: as §3

[29] = test system: Candida glabrata 0408083; assay: Peptidase detection on Columbia medium (Example 3)
Description: as §3

[30] = test system: Citrobacter freundii 0006197; assay: Peptidase detection on Columbia medium (Example 3)
Description: as §3

[31] = test system: Enterobacter cloacae 0604040; assay: Peptidase detection on Columbia medium (Example 3)
Description: as §3

[32] = test system: Enterococcus faecalis 0008192; assay: Peptidase detection on Columbia medium (Example 3)
Description: as §3

[33] = test system: Enterococcus faecium 0610021; assay: Peptidase detection on Columbia medium (Example 3)
Description: as §3

[34] = test system: Escherichia coli 0002005; assay: Peptidase detection on Columbia medium (Example 3)
Description: as §3

[35] = test system: Klebsiella pneumoniae 0008009; assay: Peptidase detection on Columbia medium (Example 3)
Description: as §3

[36] = test system: Listeria monocytogenes 8812049; assay: Peptidase detection on Columbia medium (Example 3)
Description: as §3

[37] = test system: MRSA 0303033; assay: Peptidase detection on Columbia medium (Example 3)
Description: as §3

[38] = test system: Morganella morganii 9207053; assay: Peptidase detection on Columbia medium (Example 3)
Description: as §3

[39] = test system: Providencia rettgeri 0706064; assay: Peptidase detection on Columbia medium (Example 3)
Description: as §3

[40] = test system: Salmonella ser. Typhimurium 0801029; assay: Peptidase detection on Columbia medium (Example 3)
Description: as §3

[41] = test system: Staphylococcus aureus 7811049; assay: Peptidase detection on Columbia medium (Example 3)
Description: as §3

[42] = test system: Staphylococcus epidermidis 0203050; assay: Peptidase detection on Columbia medium (Example 3)
Description: as §3

[43] = test system: Streptococcus pyogenes 9806380; assay: Peptidase detection on Columbia medium (Example 3)
Description: as §3

[44] = test system: Yersinia enterocolitica 7605019; assay: Peptidase detection on Columbia medium (Example 3)
Description: as §3

Coloration strength [1]: −
Growth ([1]; control C: ++): ++
Color [2]: orange
Coloration strength [2]: +
Growth ([2]; control C: ++): ++
Coloration strength [3]: −
Growth ([3]; control C: ++): ++
Coloration strength [6]: −
Growth ([6]; control C: ++): ++
Coloration strength [7]: −
Growth ([7]; control C: ++): ++
Color [8]: orange
Coloration strength [8]: +
Growth ([8]; control C: +): +
Color [9]: orange
Coloration strength [9]: +
Growth ([9]; control C: +): +
Coloration strength [11]: −
Growth ([11]; control C: ++): ++
Color [12]: orange
Coloration strength [12]: +
Growth ([12]; control C: +): +
Color [13]: orange
Coloration strength [13]: +
Growth ([13]; control C: ++): ++
Coloration strength [14]: −
Growth ([14]; control C: ++): ++
Coloration strength [16]: −
Growth ([16]; control C: ++): ++
Coloration strength [17]: −
Growth ([17]; control C: ++): ++
Color [18]: orange
Coloration strength [18]: +
Growth ([18]; control C: ++): ++
Coloration strength [21]: −
Growth ([21]; control C: +): +
SMILES: C[C@H](N)C(=O)Nc1ccc(C=Cc2ccc3ccccc3[n+]2C)cc1.Cl.[Cl-] [L-alanyl-2-(4′-amidostyryl)-N-methylquinolinium (dichloride)]
Coloration strength [4]: −
Growth ([4]; control C: ++): ++
Coloration strength [5]: −
Growth ([5]; control C: +): +
Coloration strength [10]: −
Growth ([10]; control C: ++): ++
Coloration strength [15]: −
Growth ([15]; control C: ++): ++
Coloration strength [19]: −
Growth ([19]; control C: ++): ++
Color [20]: orange
Coloration strength [20]: +
Growth ([20]; control C: ++): ++
Coloration strength [22]: −
Growth ([22]; control C: +): +

Color [23]: Orangey-red
Coloration strength [23]: +++
Growth ([23]; control C: +++): +++
Coloration strength [24]: ++
Growth ([24]; control C: +++): +++
Coloration strength [25]: −
Growth ([25]; control C: +++): +++
Coloration strength [26]: −
Growth ([26]; control C: +++): −
Coloration strength [27]: −
Growth ([27]; control C: ++): ++
Coloration strength [30]: −
Growth ([30]; control C: +++): +++
Coloration strength [31]: −
Growth ([31]; control C: +++): +++
Coloration strength [32]: −
Growth ([32]; control C: ++): ++
Coloration strength [33]: −
Growth ([33]; control C: ++): ++
Coloration strength [35]: −
Growth ([35]; control C: +++): +++
Coloration strength [36]: −
Growth ([36]; control C: ++): ++
Coloration strength [37]: −
Growth ([37]; control C: +++): ++
Coloration strength [38]: −
Growth ([38]; control C: +++): +++
Coloration strength [40]: −
Growth ([40]; control C: +++): +++
Coloration strength [43]: −
Growth ([43]; control C: −): −
SMILES: Cc1cc(C=Cc2ccc(NC(=O)[C@@H]3CCC(=O)N3)cc2)c2ccccc2[n+]1C.[I-] [pyroglutamyl-4-(4′-amidostyryl)-N-methylquinaldinium iodide]
Coloration strength [28]: −
Growth ([28]; control C: ++): +
Coloration strength [29]: −
Growth ([29]; control C: +): −
Coloration strength [34]: −
Growth ([34]; control C: +++): +++
Coloration strength [39]: −
Growth ([39]; control C: +++): +++
Coloration strength [41]: −
Growth ([41]; control C: ++): ++
Coloration strength [42]: −
Growth ([42]; control C: ++): −
Coloration strength [44]: −
Growth ([44]; control C: ++): +
